Assay results: patent US8673890B2, “2,3-dihydro-1H-isoindol-1-imine derivatives useful as thrombin PAR-1 receptor antagonist” (Janssen Pharmaceutica NV, priority 2009, dated 2014)
Several values for one entry are separate records, joined by “and”; a condition that tells them apart may be missing. Equal entries are not always repeated.

Tests used:
[1] = target: T1, thrombin receptor (PAR-1) (Homo sapiens, UniProt P25116); experiment: FLIPR-based calcium-flux assay with human smooth muscle cells (Har peptide agonist); assay type: cell-based; conditions: HSMC; 30 nM Har (PAR1) peptide agonist; 80-min drug incubation; multiple values = individual measurements
T1 construct: Human aortic smooth muscle cells (HSMC) were purchased from Cascade Biologics; host or cells: human aortic smooth muscle cells (HSMC)
T1 sequence (P25116 22-425): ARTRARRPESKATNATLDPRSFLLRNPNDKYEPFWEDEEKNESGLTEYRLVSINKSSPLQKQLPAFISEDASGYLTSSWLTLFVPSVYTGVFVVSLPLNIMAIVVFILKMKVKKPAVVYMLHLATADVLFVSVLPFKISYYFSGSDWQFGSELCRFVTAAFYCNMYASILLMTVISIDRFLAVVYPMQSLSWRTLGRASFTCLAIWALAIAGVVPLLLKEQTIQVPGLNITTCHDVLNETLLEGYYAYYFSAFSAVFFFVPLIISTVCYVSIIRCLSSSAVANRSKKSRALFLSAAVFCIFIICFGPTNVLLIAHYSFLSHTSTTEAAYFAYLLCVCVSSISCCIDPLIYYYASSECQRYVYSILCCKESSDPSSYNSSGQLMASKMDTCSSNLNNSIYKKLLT
Protocol: Human aortic smooth muscle cells (HSMC) were purchased from Cascade Biologics (Portland, Oreg.) and cultured in M-231 containing smooth muscle cell growth supplement and 1× Antibiotic-Antimycotic.
To determine agonist concentration for compound testing: On the day prior to the assay, 100 μL of cells (2×10^5/mL) were seeded in clear, flat-bottom black-wall, tissue culture treated polystyrene 96-well plates and incubated at 37° C., 5% CO2. On the day of the assay, 50 μL of complete dye loading solution (FLIPR Calcium 3 Kit, Molecular Devices) was added to each well containing 100 μL of culture media. The cells were incubated for 30-45 min at 37° C., in 5% CO2 before initiating the assay on the FLIPR. The agonist effect of PAR1 peptide (S-(p-F-Phe)-Har-L-Har-KY-NH2; Har=homoarginine; referred to herein as “Har” peptide) was tested and the EC50 was determined. The EC60-70 dose was used (30 nM) for compound testing.
Compound testing: On the day prior to the assay, 90 μL of cells (2.2×10^5/mL) were seeded in clear, flat-bottom black-wall, tissue culture treated polystyrene 96-well plates and incubated at 37° C., 5% CO2. On the day of the assay, the test compounds were prepared at 10× in 3% DMSO Hanks buffer and 10 μL was added to each well (final DMSO concentration of 0.3%). The cells were incubated 20 min at 37° C., 5% CO2. Culture medium containing testing compounds was dumped and the cells were washed four times with DPBS containing 0.1% of BSA and re-fed with 80 μL of growth medium. 70 μL of BD (fluorescent) dye was loaded to the cells and incubated 45 min at 37° C. incubator. The plates were equilibrated to room temperature for 15 min. 4× PAR1 peptide (30 nM final concentration) agonist plate and the cell plate were placed in FLIPR's assay chamber. 50 μL agonist was added to the cells and data was recorded for 5 min. Raw fluorescence data was exported for each well and tabulated versus time within an ASCII file. Data was then imported into Excel® and the peak response over basal level was determined. The percent inhibition for each test compound was calculated by the changes of fluorescent density as a % inhibition of the control Har peptide response to obtain an IC50.
(§1) Representative compounds of the present invention were tested according to the procedure described in Biological Example 1 above, with results in Table 8 below. In Table 8 below, where multiple values are listed for a particular compound, said numbers represent individual measurements (tests) for said compound.

washed platelets [2] = experiment: Har peptide-induced platelet aggregation in washed platelets; assay type: cell-based; conditions: Homo sapiens
Protocol: (§2) Platelet aggregation studies were performed according to the method of Bednar et al. (Bednar, B., Condra, C., Gould, R. J., and Connolly, T. M., Thromb. Res., 77:453-463 (1995)). Platelet-rich plasma (PRP) concentrates prepared from healthy volunteers who were aspirin free for at least 7 days by venipuncture using ACD-A as anticoagulant was purchased from Biological Specialties, Inc. (Colmar, Pa.). PRP was centrifuged at 730 g for 15 min. The platelet pellet was washed twice in CGS buffer (13 mM sodium citrate, 30 mM glucose, 120 mM NaCl, pH 6.5) containing 1 U/ml apyrase (grade V, Sigma-Aldrich, St. Louis, Mo.), 1 mM EGTA, and re-suspended in Tyrode's buffer (140 mM NaCl, 2.7 mM KCl, 12 mM NaHCO3, 0.76 mM Na2HPO4, 5.5 mM dextrose, 5.0 mM HEPES, 0.2% BSA, pH 7.4). The platelets were diluted to 3×10^8 platelets/ml and kept >45 min at 37° C. before use. 105 μl of washed platelets, 2 mM CaCl2 and […] of fibrinogen (for PAR-1 peptide-induced platelet aggregation only) were added to a 96-well microliter plate. Platelet aggregation was initiated by the addition of serial concentrations of Har peptide or thrombin (Alpha; American Diagnostica, Cat. # 470HT, 2,500 NIH Units/mg). Buffer was added to one set of control wells. The assay plate was stirred constantly and intermittently placed in a microplate reader (Softmax, Molecular Devices, Menlo Park, Calif.) to read optical density (650 nm) at 0 and 5 minutes after the addition of the compound solutions. Aggregation was calculated as the decrease in optical density between the time 0- and 5-min measurements and expressed as % of aggregation.
(§3) For the inhibition assay, platelet aggregation measurements were conducted as described, with the additional step of test compound addition. Compounds were prepared in 100% DMSO and stored. On the day of the experiment, the compounds were diluted in the Tyrode's buffer containing 3% of DMSO as a 10× working solution. 15 μl of test compound solutions were added to 105 μl of platelets 5 min prior to CaCl2 and fibrinogen additions. Platelet aggregation was initiated by the addition of agonist shown to achieve 60-70% aggregation. Antagonist potency was estimated as a % inhibition of the control Har peptide or thrombin response to obtain an IC50.
as §1, with “2” for “1”, “9” for “8”, “9” for “8 below,”

washed platelets [3] = experiment: Thrombin-induced platelet aggregation in washed platelets; assay type: cell-based, human; conditions: Homo sapiens, Platelet
Protocol: as §2, §3
as §1, with “2” for “1”, “9” for “8”, “9” for “8 below,”

[4] = test system: platelets in platelet-rich plasma; experiment: Har peptide-induced platelet aggregation in platelet-rich plasma; assay type: cell-based, human; conditions: Homo sapiens, Platelet, multiple values = individual measurements
Protocol: (§4) The procedure for this assay is similar to that described in Biological Example 2, above. Briefly, platelet aggregation studies were performed according to the method of Bednar et al. (Bednar, B., Condra, C., Gould, R. J., and Connolly, T. M., Thromb. Res., 77:453-463 (1995)). Platelet-rich plasma (PRP) concentrates prepared from healthy volunteers who were aspirin free for at least 7 days by venipuncture using EDTA as anticoagulant was purchased from Biological Specialties, Inc. (Colmar, Pa.). PPP (platelet-poor-plasma) was obtained by centrifugation of PRP at Max (3,000 rpms) for 15 min at room temperature. PRP was diluted to yield platelet count of 300×10^3 platelets/μL with PPP. For thrombin induced platelet aggregation: 118 μL of 500 mM GPRP-NH2 was added to 12 mL of 300×10^3 platelets before using (to clean the fibrinogen in the plasma.) GPRP was added just before the experiment. 15 μL of test compound solutions were added to 120 μL of platelets 5 min prior the agonist additions. Platelet aggregation was initiated by the addition of agonist shown to achieve 60-70% aggregation. Antagonist potency was estimated as a % inhibition of the control Har peptide or thrombin response to obtain an IC50.
(§5) Where multiple values are listed for a particular compound, said numbers represent individual measurements (tests) for said compound.

[5] = test system: platelets in platelet-rich plasma; experiment: Thrombin-induced platelet aggregation in platelet-rich plasma; assay type: cell-based, human; conditions: multiple values = individual measurements
Protocol: as §4, §5

## CC(C)(C)c1cc(C(=O)CN2Cc3cc4c(cc3C2=N)OCc2ncccc2CO4)cc(C(C)(C)C)c1O [Compound 49]
[1]
  IC50: 0.019 µM and 0.059 µM and 0.023 µM and 0.038 µM
Washed platelets [2]
  IC50: 0.068 µM
Washed platelets [3]
  IC50: 0.107 µM
[4]
  IC50: 390 nM
[5]
  IC50: 690 nM and 2430 nM
